These compounds were tested against PolQ ATPase enzyme (1-894) (Homo sapiens (Human), UniProt O75417) (assay: Polθ ATPase enzymatic assay (0.5 nM enzyme concentration), ADP-Glo). Details: average IC50; 0.5 nM PolQ ATPase enzyme (1-894).
Assay type: biochemical
Protocol: PolQ ATPase enzyme (1-894) at 0.5 nM is incubated with a 10-point concentration response of inhibitors for 15 min at rt in the following buffer: 50 mM Tris Cl pH 7.5, 10% glycerol, 5 mM DTT, 10 mM MgCl2, 0.1 mg/ml BSA. Following pre-incubation with inhibitors, DNA (Fork C) at 20 nM and ATP at 100 μM are added to start the reaction. Enzymatic reaction proceeds at rt for 180 min ATP consumption is measured using the ADP-Glo assay from Promega. Luminescence is read on the Envision and IC50 are determined using the variable slope 4-parameters equation.
Oligos are annealed by heating at 9500 for 5 min in the following buffer (10 mM Tris-HCl pH7.5, 50 mM NaCl, 1 mM EDTA) and cooled to rt. […]

Chain of PolQ ATPase enzyme (1-894) (O75417 1-894): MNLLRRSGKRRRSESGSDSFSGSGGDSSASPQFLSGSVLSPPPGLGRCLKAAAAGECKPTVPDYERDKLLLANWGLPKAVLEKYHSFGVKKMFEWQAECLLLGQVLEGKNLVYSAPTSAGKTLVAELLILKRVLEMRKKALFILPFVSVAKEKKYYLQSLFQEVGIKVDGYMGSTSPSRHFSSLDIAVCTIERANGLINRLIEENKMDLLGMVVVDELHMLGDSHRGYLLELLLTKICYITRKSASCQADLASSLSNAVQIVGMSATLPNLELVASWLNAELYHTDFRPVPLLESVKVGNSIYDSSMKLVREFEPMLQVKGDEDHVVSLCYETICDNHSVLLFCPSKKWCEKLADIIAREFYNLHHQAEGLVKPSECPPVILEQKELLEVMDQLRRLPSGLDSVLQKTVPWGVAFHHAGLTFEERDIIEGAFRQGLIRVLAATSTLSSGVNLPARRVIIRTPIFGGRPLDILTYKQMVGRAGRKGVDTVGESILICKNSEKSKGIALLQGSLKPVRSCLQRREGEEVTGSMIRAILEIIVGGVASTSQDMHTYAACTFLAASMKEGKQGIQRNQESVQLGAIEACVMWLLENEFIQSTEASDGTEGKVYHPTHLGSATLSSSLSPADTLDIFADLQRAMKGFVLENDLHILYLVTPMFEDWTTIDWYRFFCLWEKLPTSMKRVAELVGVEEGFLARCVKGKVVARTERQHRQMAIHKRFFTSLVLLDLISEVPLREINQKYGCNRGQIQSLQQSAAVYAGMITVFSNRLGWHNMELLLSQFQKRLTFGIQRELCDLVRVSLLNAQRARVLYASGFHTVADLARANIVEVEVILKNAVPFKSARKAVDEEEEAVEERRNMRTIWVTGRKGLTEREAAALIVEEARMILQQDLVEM

IC50	Structure (SMILES)
21 nM	COc1cnc(C(F)F)cc1-c1cc(N2CCC(n3ccnc3)CC2)ncc1C(=O)Nc1nnc(C#CC2CC2)s1 [Compound 125]
< 0.25 nM	COc1cnc(C(F)F)cc1-c1cc(-n2cncn2)ncc1C(=O)Nc1nnc(C#CC2CC2)s1 [Compound 263]
< 0.25 nM	COc1cnc(C(F)F)cc1-c1cc(N2CCn3nccc3C2=O)ncc1C(=O)Nc1nnc(C#CC2CC2)s1 [Compound 133]
1.8 nM	COc1cnc(CF)cc1-c1cnccc1C(=O)Nc1nnc(C#CC2CC2)s1 [Compound 71]
< 0.25 nM	[2H]C([2H])([2H])N(C(C)=O)c1ccc(C(=O)Nc2nnc(C#CC3CC34CC4)s2)c(-c2cc(C(F)F)ncc2OC)c1 (centres unmarked) [Compound 237]
< 0.25 nM	[2H]C([2H])([2H])Oc1cnc(C(F)F)cc1-c1cc(-c2ccn(C)n2)ncc1C(=O)Nc1nnc(C#CC2CC2)s1 [Compound 375]
1.89 nM	COc1cnc(C(F)(F)F)cc1-c1cn(C)c(=O)cc1C(=O)Nc1nnc(C#CC2CC2)s1 [Compound 59]
2.5 nM	COc1cnc(C(F)F)cc1-c1cc(-c2nnc(C)o2)ccc1C(=O)Nc1ncc(C#CC2CC2)s1 [Compound 120]
< 0.25 nM	COc1cnc(C(F)F)cc1-c1cc(CC(=O)N2CC(F)(F)C2)ccc1C(=O)Nc1nnc(C#CC2CC2)s1 [Compound 195]
4.4 nM	COc1cnc(C(F)F)cc1-c1cnccc1C(=O)Nc1nnc(C2C[C@H]2c2ccc(C#N)nc2)s1 (some centres unmarked) [Compound 266]
2.71 nM	COc1ccc(C(F)(F)F)cc1-c1cn(C2COC2)c(=O)cc1C(=O)Nc1nnc(C#Cc2cc(C)[nH]n2)s1 [Compound 78]
100 nM	COc1cnc(C(F)F)cc1-c1cc(N2C(=O)[C@H]3CC[C@@H]2C3)ncc1C(=O)Nc1nnc(C#CC2CC2)s1 [Compound 365]
3 nM	COc1cnc(C(F)F)cc1-c1cc(-c2nnc(C)o2)ccc1C(=O)Nc1nc(C#N)c(C#CC2CC2)s1 [Compound 376]
0.6 nM	Cc1cc(C#Cc2nnc(NC(=O)c3ccncc3-c3cc(F)ccc3Cl)s2)n[nH]1 [Compound 29]
0.27 nM	COc1cnc(C(F)F)cc1-c1cc(-c2nnc(C)o2)ncc1C(=O)Nc1nnc(C#CC2CC2)s1 [Compound 354]
< 0.25 nM	COc1cnc(C(F)F)cc1-c1cc(-n2nc3c(cc2=O)CCC3)ncc1C(=O)Nc1nnc(C#CC2CC2)s1 [Compound 462]
0.26 nM	COc1cnc(C(F)F)cc1-c1cc(N2CCN(C(C)=O)CC2=O)ccc1C(=O)Nc1nnc(C#CC2CC2)s1 [Compound 137]
< 0.25 nM	NC(=O)Cn1cc(-c2cc(Cl)ncc2OC(F)F)c(C(=O)Nc2nnc(C#CC3CC3)s2)cc1=O [Compound 76]
1.5 nM	COc1cnc(C(F)F)cc1-c1cc(N2C(=O)CCC2=O)ccc1C(=O)Nc1nnc(C#CC2CC2)s1 [Compound 216]
1.4 nM	COc1cnc(C(F)F)cc1-c1cc(-c2nnc(N(C)C)o2)ccc1C(=O)Nc1nnc(C#CC2CC2)s1 [Compound 408]
0.31 nM	COc1cnc(Cl)cc1-c1cc(C#CC2(O)CCOCC2)ccc1C(=O)Nc1nnc(C#CC2CC2)s1 [Compound 53]

IC50	Structure (SMILES)
< 0.25 nM	COc1cnc(C(F)F)cc1-c1cc(N2CCN(CC3CC3)CC2=O)ncc1C(=O)Nc1nnc(C#CC2CC2)s1 [Compound 386]
1.6 nM	COc1cnc(C(F)F)cc1-c1cc(CC(=O)N(C)C)ncc1C(=O)Nc1nc(C)c(C#CC2CC2)s1 [Compound 179]
< 0.25 nM	Cn1cc(-c2cc(Cl)ncc2OC(F)F)c(C(=O)Nc2nnc(C#CC3CC34CC4)s2)cc1=O (centres unmarked) [Compound 320]
< 0.25 nM	COc1cnc(C(F)F)cc1-c1cc(-n2ccc(C)cc2=O)ncc1C(=O)Nc1nnc(C#CC2CC2)s1 [Compound 387, N-(5-(cyclopropylethynyl)-1,3,4-thiadiazol-2-yl)-2″-(difluoromethyl)-5″-methoxy-4-methyl-2-oxo-2H-[1,2′:4′,4″-terpyridine]-5′-carboxamide]
23 nM	COc1cnc(C(F)F)cc1-c1cc(N2CCOCC2=O)ncc1C(=O)Nc1nnc(C#Cc2ccc(Cl)cc2)s1 [Compound 176]
0.62 nM	COc1cnc(Cl)cc1-c1cc(C#N)ncc1C(=O)Nc1nnc(C#CC2CC2)s1 [Compound 72]
< 0.25 nM	COc1cnc(C(F)F)cc1-c1cc(-c2ccn(C(F)F)n2)ncc1C(=O)Nc1nnc(C#CC2CC2)s1 [Compound 350]
0.93 nM	COc1cnc(Cl)cc1-c1cnccc1C(=O)Nc1nnc([C@@H]2C[C@H]2c2ccc(C#N)c(C)c2)s1 [Compound 287]
0.32 nM	CNC(=O)Cn1cc(-c2cc(C(F)(F)F)ccc2OC)c(C(=O)Nc2nnc(C#CC3CC3)s2)cc1=O [Compound 93]
0.48 nM	COc1cnc(C(F)F)cc1-c1cc(-c2cc(C)n(C)n2)ncc1C(=O)Nc1nnc(C#CC2CC2)s1 [Compound 450]
13 nM	COc1cnc(Cl)cc1-c1cnccc1C(=O)Nc1nnc(C2C[C@H]2c2ccc(C#N)cc2OC)s1 (some centres unmarked) [Compound 304]
< 0.25 nM	COc1cnc(C(F)F)cc1-c1cc(-n2c(F)cccc2=O)ncc1C(=O)Nc1nnc(C#CC2CC2)s1 [Compound 461]
0.69 nM	COc1cnc(C(F)F)cc1-c1cc(-c2cn(C)nc2F)ncc1C(=O)Nc1nnc(C#CC2CC2)s1 [Compound 416]
< 0.25 nM	COc1ccn(-c2cc(-c3cc(C(F)F)ncc3OC)c(C(=O)Nc3nnc(C#CC4CC4)s3)cn2)c(=O)c1 [Compound 434]
< 0.25 nM	COc1cnc(C(F)F)cc1-c1cc(N(C)C(=O)C2CC2)ccc1C(=O)Nc1nnc(C#CC2CC2)s1 [Compound 222]
< 0.25 nM	COc1cnc(C(F)F)cc1-c1cc(N2CCCC(C)C2=O)ncc1C(=O)Nc1nnc(C#CC2CC2)s1 (centres unmarked) [Compound 390]
0.29 nM	COc1cnc(Cl)cc1-c1cc(N(C)C(C)=O)ccc1C(=O)Nc1nnc(C#CC2CC2)s1 [Compound 294]
1.2 nM	COc1cnc(C(F)F)cc1-c1cc(CO)ncc1C(=O)Nc1nnc(C#CC2CC2)s1 [Compound 272]
< 0.25 nM	COc1cnc(C(F)F)cc1-c1cc(C#CC(C)(C)O)ncc1C(=O)Nc1nnc(C#CC2CC2)s1 [Compound 253]
3.7 nM	COc1cnc(Cl)nc1-c1cc(-c2ccn(C)n2)ncc1C(=O)Nc1nnc(C#CC2CC2)s1 [Compound 417]
1.6 nM	COc1cnc(C(F)F)cc1-c1cc(-c2nnc(NC(C)=O)o2)ccc1C(=O)Nc1nnc(C#CC2CC2)s1 [Compound 418]

IC50	Structure (SMILES)
4.6 nM	C#C[C@H]1CC1c1nnc(NC(=O)c2ccc(-c3nnc(C)o3)cc2-c2cc(C(F)F)ncc2OC)s1 (some centres unmarked) [Compound 373]
0.39 nM	C#CC1CC1c1nnc(NC(=O)c2ccc(N3CCOCC3=O)cc2-c2cc(C(F)F)ncc2OC)s1 (centres unmarked) [Compound 397]
0.49 nM	COc1cnc(Cl)cc1-c1cn2cc(C(=O)N(C)C)nc2cc1C(=O)Nc1nnc(C#CC2CC2)s1 [Compound 314]
0.77 nM	COc1ccc(C(F)(F)F)cc1-c1cc(C#CC2CCCOC2)ncc1C(=O)Nc1nnc(C#CC2CC2)s1 (centres unmarked) [Compound 249]
< 0.25 nM	COc1cnc(Cl)cc1-c1cn(CC(N)=O)c(=O)cc1C(=O)Nc1nnc(C#CC2CC23CC3)s1 (centres unmarked) [Compound 83]
0.29 nM	COc1cnc(C(F)F)cc1-c1cc(-c2ccc(=O)n(C)c2)ccc1C(=O)Nc1nnc(C#CC2CC2)s1 [Compound 202]
< 0.25 nM	COc1cnc(Cl)cc1-c1cnccc1C(=O)Nc1nnc(C#CC2CC23CC3)s1 (centres unmarked) [Compound 100]
2.3 nM	COc1cnc(C(F)(F)F)cc1-c1cnccc1C(=O)Nc1nnc(C#CC2CC2)s1 [Compound 91]
0.39 nM	C#C[C@@H]1C[C@H]1c1nnc(NC(=O)c2ccc(N3CCOCC3=O)cc2-c2cc(C(F)F)ncc2OC)s1 [Compound 177]
< 0.25 nM	CNC(=O)Cc1ccc(C(=O)Nc2nnc(C#CC3CC3)s2)c(-c2cc(C(F)F)ncc2OC)c1 [Compound 230]
< 0.25 nM	O=C(Nc1nnc(C#CC2CC2)s1)c1cnc(-n2ncccc2=O)cc1-c1cc(C(F)F)ncc1Cl [Compound 463]
2.4 nM	CNC(=O)Cn1cc(-c2nc(C(F)(F)F)ccc2OC)c(C(=O)Nc2nnc(C#CC3CC3)s2)cc1=O [Compound 52]
0.36 nM	COc1ccc(C(F)F)cc1-c1cn(CC(N)=O)c(=O)cc1C(=O)Nc1nnc(C#CC2CC2)s1 [Compound 87]
< 0.25 nM	COc1cnc(C(F)F)cc1-c1cc(-n2ccc(Cl)cc2=O)ncc1C(=O)Nc1nnc(C#CC2CC2)s1 [Compound 459]
2.6 nM	COc1cnc(Cl)cc1-c1cn2ncnc2cc1C(=O)Nc1nnc(C#CC2CC2)s1 [Compound 96]
9.2 nM	COc1ccc(C(F)(F)F)cc1-c1cn(C)c(=O)cc1C(=O)Nc1nnc(C#CC2CCOCC2)s1 [Compound 337]
0.79 nM	COc1cnc(C(F)F)cc1-c1cc(NCCOCC(=O)O)ncc1C(=O)Nc1nnc(C#CC2CC2)s1 [Compound 159]
< 0.25 nM	COc1cc(N2CCOCC2)c(C(F)(F)F)cc1-c1cnccc1C(=O)Nc1nnc(C#CC2CC2)s1 [Compound 325]
< 0.25 nM	COc1cnc(C(F)F)cc1-c1cc(C#CC2(n3cccn3)CC2)ncc1C(=O)Nc1nnc(C#CC2CC2)s1 [Compound 233]

Structure (SMILES)	IC50
COc1cnc(C(F)F)cc1-c1cc(-c2ccn(C)n2)cnc1C(=O)Nc1nnc(C#CC2CC2)s1 [Compound 156]	1.1 nM
Cc1nnc(Cn2cc(-c3cc(C(F)F)ncc3C)c(C(=O)Nc3ncc(C#CC4CC4)s3)cc2=O)o1 [Compound 126]	< 0.25 nM
COc1cnc(C(F)F)cc1-c1cc(-c2ccn(C)n2)ccc1C(=O)Nc1nnc(C#CC2CC2)s1 [Compound 280]	< 0.25 nM
COc1cnc(C(F)F)cc1-c1cc(Cc2nnc(C)o2)ccc1C(=O)Nc1nnc(C#CC2CC2)s1 [Compound 244]	< 0.25 nM

— patent US20250026748A1, “N-(5-SUBSTITUTED-[(1,3,4-THIADIAZOLYL) OR (THIAZOLYL)])(SUBSTITUTED)CARBOXAMIDE COMPOUNDS AND USE THEREOF FOR INHIBITING HUMAN POLYMERASE THETA” (Repare Therapeutics Inc., priority 2021, published 2025)
